This is an account of results in patent publication US7750049B2, “O-substituted-dibenzyl urea-derivatives as TRPV1 receptor antagonists” (Pharmeste S.R.L., priority 2006, dated 2010).

The target of data set [1] is T1, vanilloid TRPV1 receptor (Rattus norvegicus, UniProt O35433).
T1 construct: the spinal cord was removed and disrupted using a Polytron tissue homogenizer; from tissue; host or cells: spinal cord of male Sprague-Dawley rats (membranes)
The data set is described as follows: [3H]RTX radioligand binding assay in rat spinal cord membranes. Particulars: displacement of [3H]RTX (0.4 nM), 37° C., 60 min. The method, then:
Male Sprague-Dawley rats with body weight between 250 to 350 g were used. For binding assays the rats were decapitated under anesthesia and the spinal cord was removed and disrupted using a Polytron tissue homogenizer in ice cold buffer containing 5 mM KCl, 5.8 mM NaCl, 0.75 mM CaCl2, 2 mM MgCl2, 320 mM sucrose, 10 mM Hepes, pH 8.6 (Szallasi and Blunberg, 1992; 1993). In competition experiments, the membranes were incubated at 37° C. for 60 min with [^3H]RTX (0.4 nM) and with increasing concentrations of test compounds in the range from 0.1 nM to 3 μM. Non-specific binding was evaluated in the presence of 1 μM RTX. Saturation and competition studies were analyzed with the Ligand program (Bradford, 1976; Munson and Rodbard, 1980).
Compounds 6a-6m displaced [^3H]RTX from its binding site in rat spinal cord membranes at low concentrations, as indicated by the Ki values reported in Table 1.
A general note: In a radioligand displacement assay an active substance lowers the binding of a labelled ligand.

In data set [2] the target is T2, TRPV1 (Rattus norvegicus, UniProt O35433).
T2 construct: Ca^2+ Fluorescence Measurements in Cultured Rat Trigeminal Ganglia; endogenous in cells; host or cells: cultured rat trigeminal ganglion neurons (primary culture)
Description: Ca2+ fluorescence measurements in cultured rat trigeminal ganglia (capsaicin-evoked [Ca2+]i mobilization). The class given is cell-based. Conditions: 30 nM capsaicin, rat trigeminal neuron cells; read-out: IC50 of inhibiting capsaicin-evoked [Ca2+]i mobilization. The procedure: The calibration curve was determined using a buffer containing Fura-2-AM-ester and definite concentrations of free Ca^2+. This curve was then used to convert the data obtained from F340/F380 ratio to [Ca^2+]i (nM) (Kudo, Y). The effects of pretreatments with compounds 6a-6m on the increase in [Ca^2]i produced by 30 nM capsaicin were studied.
Capsaicin (30 nM) increased [Ca^2+]i in the vast majority (95%) of rat trigeminal neuron cells, which were therefore identified as TRPV1-expressing neurons.

The test system of data set [3] is capsaicin-induced secondary allodynia. Description: Capsaicin-induced secondary allodynia in rat. The class given is in vivo. Particulars: 30 μmol/kg p.o., 2 hours prior to capsaicin, 90 min after capsaicin challenge. The procedure: Capsaicin (5 nmols/50 μl/paw) was injected in the plantar surface of the glabrous skin of the right paw of rats anesthetized with diethyl ether (Chaplan et al., 1994). Compounds 6c and 6d were orally administrated 2 hours prior to capsaicin injection. Tactile allodynia was evaluated 90 min after capsaicin challenge. In a more extended study, compounds 6c and 6d were tested against capsaicin-induced secondary allodynia in rats.

Data set [4] is described as follows: Cytotoxicity on Hep G2 cells. Conditions: human. The class given is cell-based. The procedure: (§1) LogD Values at pH=7.0 were calculated in silico, while the in vitro tests analysed: • metabolic stability in cryopreserved human hepatocytes; • cytotoxicity on Hep G2 cells; • cassette pharmacokinetics in rat.
The cells were cultured for 3 days, trypsinized and re-suspended in 20 ml of culture medium. The cells were then counted and diluted to obtain a final concentration suitable for seeding 40.000 cells/well in 96-well cell culture plates (200 μl/well).
The cells were seeded in columns 1 to 11 (column 12 contained medium without cells), then placed for 16-24 hours at 37° C. with 5% of CO2.

Data set [5] can be described thus: Preliminary cassette pharmacokinetic study in catheterized conscious rats. Conditions: plasma; rat, oral, cassette dosing; read-out: Pharmacokinetics in Rat Oral t1/2. The class given is in vivo. The method, then:
as §1
Compounds were administered together to rats. The compounds were stored at −20° C. when not used. The formulation, route of administration, plasma samples identification and pharmacokinetic analysis were performed according to standard protocols (Raynaud, F I et al, 2004; Manitpisitkul, P. et al., 2004; Singh S. et al., 2006).

For data set [6] the following is noted: value from Ref. 8 (Rami et al. 2006); cited from earlier work.

Molecules are shown by their SMILES. pIC50, pKi: −log10 of the molar value.

T2 sequence (O35433 whole entry): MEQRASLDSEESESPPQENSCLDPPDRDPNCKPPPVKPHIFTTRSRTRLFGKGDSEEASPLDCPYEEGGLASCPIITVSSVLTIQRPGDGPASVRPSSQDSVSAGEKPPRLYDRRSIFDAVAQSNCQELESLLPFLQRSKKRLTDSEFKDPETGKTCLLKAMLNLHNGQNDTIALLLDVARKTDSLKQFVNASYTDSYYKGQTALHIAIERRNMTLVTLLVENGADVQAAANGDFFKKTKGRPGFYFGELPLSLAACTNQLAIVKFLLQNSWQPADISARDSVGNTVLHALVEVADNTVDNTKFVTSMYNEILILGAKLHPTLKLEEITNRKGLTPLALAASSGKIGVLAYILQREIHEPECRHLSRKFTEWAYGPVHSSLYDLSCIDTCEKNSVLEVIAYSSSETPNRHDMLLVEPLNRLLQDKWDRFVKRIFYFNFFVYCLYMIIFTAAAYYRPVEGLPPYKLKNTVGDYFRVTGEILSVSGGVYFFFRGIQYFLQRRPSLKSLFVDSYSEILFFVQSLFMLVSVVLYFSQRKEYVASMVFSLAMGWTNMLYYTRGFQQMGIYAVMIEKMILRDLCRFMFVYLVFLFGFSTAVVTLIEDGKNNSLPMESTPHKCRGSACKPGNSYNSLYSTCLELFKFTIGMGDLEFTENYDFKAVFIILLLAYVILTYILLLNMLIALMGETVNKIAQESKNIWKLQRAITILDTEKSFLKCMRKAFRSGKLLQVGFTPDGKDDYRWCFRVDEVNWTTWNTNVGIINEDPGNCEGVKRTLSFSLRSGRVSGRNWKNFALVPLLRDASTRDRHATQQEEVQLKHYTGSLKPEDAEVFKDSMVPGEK
T1 sequence (O35433 whole entry): as above

As usually defined, the pKi is the Ki on a negative log10 scale, so that one unit is a factor of ten. By pIC50 is commonly meant −log10 of the IC50, conventionally taken in molar units. Regarding `COc1cc(CNC(=O)NCc2ccc(C(F)(F)F)cc2)c(Cl)cc1OCC(O)CO` (racemic) [Compound 6c, 1-[4-(2,3-Dihydroxypropoxy)-2-chloro-5-methoxybenzyl]-3-[4-(trifluoromethyl)-benzyl]urea], the pKi in data set [1] was 7.22. Besides, the figures for the pIC50 in data set [2] and in data set [4] were 7.99 and 4.28, respectively. For the same compound, in data set [3], the “% of inhibition of the pro-allodinic effect of capsaicin” value turned out to be 53.1%. The half-life in data set [5] worked out at 1.3 h.

On to `COc1cc(CNC(=O)NCc2ccc(C(F)(F)F)cc2)c(Br)cc1OCC(O)CO` (racemic) [Compound 6d, 1-[4-(2,3-Dihydroxypropoxy)-2-bromo-5-methoxybenzyl]-3-[4-(trifluoromethyl)-benzyl]urea], for which the pKi in data set [1] was 7.07. Moreover, the pIC50 in data set [2] was 7.10; in data set [4], 4.15. The “% of inhibition of the pro-allodinic effect of capsaicin” value in data set [3] is 47.9%. The half-life in data set [5] is 1.08 h.

As for `COc1cc(CNC(=O)NCc2ccc(C(F)(F)F)cc2)c(Cl)cc1OC[C@H](O)CO` [(R)-(−)6c, 1-[4-((R)-(−)-2,3-dihydroxypropoxy)-2-chloro-5-methoxybenzyl]-3-[4-(trifluoromethyl)-benzyl]urea], the pIC50 in data set [2] is 8.15. In addition, the half-life in data set [5] turned out to be 7.7 h.

In the case of `COc1cc(CNC(=O)NCc2ccc(C(F)(F)F)cc2)c(Br)cc1OC[C@H](O)CO` [(R)-(−)6d, 1-[4-((R)-(−)-2,3-dihydroxypropoxy)-2-bromo-5-methoxybenzyl]-3-[4-(trifluoromethyl)-benzyl]urea], in data set [2], the pIC50 was 7.28. Besides, in data set [5], the half-life is 4.43 h.

`COc1cc(CNC(=O)NCc2ccc(C(F)(F)F)cc2)c(Cl)cc1OC[C@@H](O)CO` [(S)-(+)6c]: in data set [2], the pIC50 is under 6.00.

Take `COc1cc(CNC(=O)NCc2ccc(C(F)(F)F)cc2)c(Br)cc1OC[C@@H](O)CO` [(S)-(+)6d]: in data set [2], the pIC50 was under 6.00.

Consider `COc1cc(CNC(=O)NCc2ccc(C(C)(C)C)cc2)c(Cl)cc1OCCO` [Compound 6a, 1-[4-(2-hydroxyethoxy)-2-chloro-5-methoxybenzyl]-3-[4-(tert-butyl)-benzyl]urea], for which the pKi in data set [1] is 6.76. For the same compound, the negative logarithm of the IC50 (pIC50) in data set [2] is 6.07.

`COc1cc(CNC(=O)NCc2ccc(C(F)(F)F)cc2)c(Cl)cc1OCCCO` [Compound 6e] had a pKi in data set [1] of under 6.00. Further, the pIC50 in data set [2] is under 6.00.

In the case of `COc1cc(CNC(=O)NCc2ccc(C(C)(C)C)cc2)c(Cl)cc1OCCCO` [Compound 6f], the pKi in data set [1] is 6.60. In addition, the pIC50 in data set [2] is 6.30.

Regarding `COc1cc(CNC(=O)NCc2ccc(C(F)(F)F)cc2)c(Cl)cc1OCCO` [Compound 6g, 1-[4-(2-hydroxyethoxy)-2-chloro-5-methoxybenzyl]-3-[4-(trifluoromethyl)-benzyl]urea], the negative logarithm of the Ki (pKi) in data set [1] is under 6.00. For the same compound, the pIC50 in data set [2] is 6.79.

As for `COc1cc(CNC(=O)NCc2ccc(C(F)(F)F)cc2)c(Br)cc1OCCO` [Compound 6h, 1-[4-(2-Hydroxyethoxy)-2-bromo-5-methoxybenzyl]-3-[4-(trifluoromethyl)-benzyl]urea], the pKi in data set [1] was 6.82. Besides, the pIC50 in data set [2] was 6.92.

In data set [1], `COc1cc(CNC(=O)NCc2ccc(C(F)(F)F)cc2)c(-c2ccccc2)cc1OCC(O)CO` (stereo not shown) [Compound 6i, 1-[4-(2,3-dihydroxypropoxy)-2-phenyl-5-methoxybenzyl]-3-[4-(trifluoromethyl)-benzyl]urea] gave a pKi of 6.56. Further, the pIC50 in data set [2] is under 6.00.

For `COc1cc(CNC(=O)NCc2ccc(C(F)(F)F)cc2)c(-c2cccnc2)cc1OCC(O)CO` (stereo not shown) [Compound 6l, 1-[4-(2,3-dihydroxypropoxy)-2-(pyridin-3-yl)-5-methoxybenzyl]-3-[4-(trifluoromethyl)-benzyl]urea], the pKi in data set [1] was 6.76. The pIC50 in data set [2] is under 6.00.

For orientation: melting point means the temperature of the solid-liquid transition. In turn, `COc1cc(CNC(=O)NCc2ccc(C(F)(F)F)cc2)c(-c2ccc(Cl)cc2)cc1OC[C@H](O)CO` [Compound 6m, 1-[4-(2,3-dihydroxypropoxy)-2-(4-chloro)phenyl-5-methoxybenzyl]-3-[4-(trifluoromethyl)-benzyl]urea] registered a melting point of 174 °C. In addition, the pKi in data set [1] is 6.93.

The compound `O=C(Nc1ccccc1Br)N[C@@H]1CCN(c2ccc(C(F)(F)F)cn2)C1` [SB-705498, reference compound] gave a pIC50 in data set [4] of 4.69. Besides, the “Pharmacokinetics in Rat Oral t1/2” value in data set [6] is 180 ^Ref. 8 min.
